Reference: US20100113437A1, “Active Compound Combinations Having Insecticidal and regular, utility” (BAYER CROPSCIENCE AG, priority 2006, published 2010)

How the values were obtained:
[1] = test system: Spodoptera frugiperda larvae; assay: Spodoptera frugiperda larvae test (Example G, leaf dip); type: in vivo; conditions: single active compound; for Kill in % after 3d: 4 ppm; for Kill in % after 2d: 100 ppm
Tetranychus urticae = assay: Tetranychus test, OP-resistant/spray treatment (Example H); type: in vivo; conditions: single active compound; for Kill in % after 6d: 0.8 g/ha
Procedure: Disks of bean leaves (Phaseolus vulgaris) which are infested by all stages of the greenhouse red spider mite (Tetranychus urticae) are sprayed with an active compound preparation of the desired concentration.
After the desired period of time, the activity in % is determined.

Plutella xylostella = Plutella xylostella test (Example E, leaf dip); type: in vivo; conditions: 0.8 ppm, single active compound
[2] = test system: Spodoptera frugiperda larvae; assay: Spodoptera frugiperda larvae test (Example F, spray); type: in vivo; conditions: single active compound
[3] = test system: Phaedon cochleariae larvae; assay: Phaedon cochleariae larvae test (Example D, spray); conditions: single active compound
Myzus persicae [4] = assay: Myzus persicae test (Example B, cabbage leaves sprayed, acetone/DMF); type: in vivo; conditions: single active compound
Aphis gossypii = Aphis gossypii test (Example A, cotton leaves dipped); type: in vivo; conditions: single active compound; for Kill in % after 6d: 0.8 ppm; for Kill in % after 1d: 100 ppm
Myzus persicae [5] = assay: Myzus persicae test (Example C, cabbage leaves sprayed, DMF); type: in vivo; conditions: single active compound

CCOC(=O)OC1=C(c2cc(C)ccc2C)C(=O)NC12CCC(OC)CC2 (centres unmarked) [compound (IIa)]
Kill in % after 3d [1]: 0% | Kill in % after 6d (Tetranychus urticae): 60% | Kill in % after 2d (Tetranychus urticae; 20 g/ha): 0% | Kill in % after 2d (Tetranychus urticae; 100 g/ha): 10% | Kill in % after 6d (Plutella xylostella): 80% | Kill in % after 6d ([2]; 0.16 g/ha): 0% | Kill in % after 6d ([2]; 0.8 g/ha): 0% | Kill in % after 2d ([2]; 4 g/ha): 0% | Kill in % after 2d ([2]; 20 g/ha): 0% | Kill in % after 6d ([2]; 20 g/ha): 0% | Kill in % after 6d ([3]; 20 g/ha): 0% | Kill in % after 6d ([3]; 100 g/ha): 67% | Kill in % after 1d (Myzus persicae [4]; 20 g/ha): 0% | Kill in % after 1d (Myzus persicae [4]; 100 g/ha): 0% | Kill in % after 6d (Aphis gossypii): 0%

COC1CCC2(CC1)NC(=O)C(c1cc(C)ccc1C)=C2O (centres unmarked) [compound (Ia)]
Kill in % after 2d [1]: 0% | Kill in % after 1d (Myzus persicae [5]; 4 ppm): 0% | Kill in % after 1d (Myzus persicae [5]; 20 ppm): 10% | Kill in % after 1d (Aphis gossypii): 0%

emamectin benzoate
Kill in % after 6d (Aphis gossypii): 15%

CC[S+]([O-])c1c(C#N)nn(-c2c(Cl)cc(C(F)(F)F)cc2Cl)c1N (centres unmarked) [ethiprole]
Kill in % after 2d (Tetranychus urticae; 20 g/ha): 20%

CNC(=O)c1cc(Cl)cc(C)c1NC(=O)c1cc(Br)nn1-c1ncccc1Cl [Rynaxapyr]
Kill in % after 1d (Myzus persicae [5]; 4 ppm): 35% | Kill in % after 2d ([2]; 0.8 g/ha): 67% | Kill in % after 1d (Aphis gossypii): 75%

CO[C@H]1CC[C@]2(CC1)NC(=O)C(c1cc(C)ccc1C)=C2O [compound (I)]
Kill in % after 2d [1]: 0% | Kill in % after 1d (Myzus persicae [5]; 4 ppm): 0% | Kill in % after 1d (Myzus persicae [5]; 20 ppm): 15% | Kill in % after 1d (Aphis gossypii): 0%

Cc1cc(C(F)(C(F)(F)F)C(F)(F)F)ccc1NC(=O)c1cccc(I)c1C(=O)NC(C)(C)CS(C)(=O)=O [flubendiamide]
Kill in % after 6d ([2]; 0.8 g/ha): 50%

N#Cc1nn(-c2c(Cl)cc(C(F)(F)F)cc2Cl)c(N)c1[S+]([O-])C(F)(F)F (centres unmarked) [fipronil]
Kill in % after 6d (Tetranychus urticae): 0% | Kill in % after 1d (Myzus persicae [5]; 20 ppm): 10% | Kill in % after 1d (Myzus persicae [4]; 20 g/ha): 20%

N#Cc1ccc(CC(=NNC(=O)Nc2ccc(OC(F)(F)F)cc2)c2cccc(C(F)(F)F)c2)cc1 (mixture of isomers) [metaflumizone]
Kill in % after 6d ([2]; 20 g/ha): 83% | Kill in % after 6d ([3]; 100 g/ha): 0%

CCOC(=O)OC1=C(c2cc(C)ccc2C)C(=O)N[C@]12CC[C@@H](OC)CC2 [compound (II)]
Kill in % after 3d [1]: 0% | Kill in % after 6d (Tetranychus urticae): 50% | Kill in % after 2d (Tetranychus urticae; 20 g/ha): 10% | Kill in % after 2d (Tetranychus urticae; 100 g/ha): 20% | Kill in % after 6d (Plutella xylostella): 10% | Kill in % after 6d ([2]; 0.16 g/ha): 0% | Kill in % after 6d ([2]; 0.8 g/ha): 0% | Kill in % after 2d ([2]; 4 g/ha): 0% | Kill in % after 2d ([2]; 20 g/ha): 0% | Kill in % after 6d ([2]; 20 g/ha): 0% | Kill in % after 6d ([3]; 20 g/ha): 17% | Kill in % after 6d ([3]; 100 g/ha): 50% | Kill in % after 1d (Myzus persicae [4]; 20 g/ha): 10% | Kill in % after 1d (Myzus persicae [4]; 100 g/ha): 10% | Kill in % after 6d (Aphis gossypii): 0%

O=C(NC(=O)c1ccccc1Cl)Nc1ccc(OC(F)(F)F)cc1 [triflumuron]
Kill in % after 2d (Tetranychus urticae; 100 g/ha): 0% | Kill in % after 1d (Myzus persicae [4]; 100 g/ha): 0%

O=C(NC(=O)c1c(F)cccc1F)Nc1cc(Cl)c(OC(F)(F)C(F)C(F)(F)F)cc1Cl (centres unmarked) [lufenuron]
Kill in % after 2d [1]: 40% | Kill in % after 2d ([2]; 20 g/ha): 50% | Kill in % after 6d ([3]; 20 g/ha): 83%

O=C(NC(=O)c1c(F)cccc1F)Nc1ccc(Oc2ccc(C(F)(F)F)cc2Cl)cc1F [flufenoxuron]
Kill in % after 6d ([2]; 0.16 g/ha): 83% | Kill in % after 6d ([3]; 20 g/ha): 50%
